Each structure is given as a SMILES string.

One experiment is filed under the species Cavia porcellus. The experiment can be described thus: Inhibition of contraction of electrically stimulated guinea pig ileum. The format is functional, organism-based.
The term IC50 denotes the concentration that inhibits the measured activity by half. Low values mean greater potency in that assay, high ones weaker potency in that assay. With `CC(C)[C@H](NC(=O)[C@@H](N)Cc1ccc(O)cc1)C(=O)NCC(=O)NC1CCc2ccccc21` (some centres undefined), it took 1400 nM to reach half-maximal inhibition (IC50).
Same read-out and setting: for `CSCC[C@H](NC(=O)[C@H](Cc1ccccc1)NC(=O)CNC(=O)[C@H](NC(=O)[C@@H](N)Cc1ccc(O)cc1)C(C)C)C(N)=O` the value was 16 nM; for `CC(NC(=O)[C@@H](N)Cc1ccc(O)cc1)C(=O)NCC(=O)NC1Cc2ccccc2C1` (stereo in doubt), 9010 nM.
`CC(NC(=O)[C@@H](N)Cc1ccc(O)cc1)C(=O)NCC(=O)NCc1ccccc1` (stereo in doubt) had an IC50 of 140 nM. Compared with the last molecule, the IC50 is about 64-fold lower.
Still for that read-out and setting: for `CC(C)[C@H](NC(=O)CNC(=O)[C@@H](N)Cc1ccc(O)cc1)C(=O)NC1CCc2ccccc21` (some centres undefined) the value was 9030 nM; for `CC(NC(=O)[C@@H](N)Cc1ccc(O)cc1)C(=O)NCC(=O)NCC1CCC1` (stereo in doubt), 320 nM.
Same read-out and setting: for `CC(C)C[C@@H](NC(=O)[C@H](Cc1ccccc1)NC(=O)CNC(=O)[C@@H](C)NC(=O)[C@@H](N)Cc1ccc(O)cc1)C(=O)O` [DADLE] the value was 17 nM; for `CC(NC(=O)[C@@H](N)Cc1ccc(O)cc1)C(=O)NCC(=O)N[C@@](C)(Cc1ccccc1)C(=O)O` (stereo in doubt), 75 nM.
The same measure, in the same setting: to `C[C@@H](NC(=O)[C@@H](N)Cc1ccc(O)cc1)C(=O)NCC(=O)NC1CCc2ccccc21` (some centres undefined) belongs 40 nM; to `CN1CC[C@]23c4c5ccc(O)c4O[C@H]2[C@@H](O)C=C[C@H]3[C@H]1C5`, 1.6 nM; to `CCOC(=O)CC[C@H](N)C(=O)N[C@H](C)C(=O)NCC(=O)N[C@@H](Cc1ccccc1)C(=O)N[C@H](CC(C)C)C(=O)O`, 7330 nM.
Turning to `CC(NC(=O)[C@@H](N)Cc1ccc(O)cc1)C(=O)NCC(=O)NCC1CC1` (stereo in doubt), half-maximal inhibition (IC50) was put at 480 nM.
On the same count and under the same terms, to `CC(NC(=O)[C@@H](N)Cc1ccc(O)cc1)C(=O)NCC(=O)NCCc1ccccc1` (stereo in doubt) belongs 98 nM; to `CC(C)C[C@@H](NC(=O)[C@](C)(Cc1ccccc1)NC(=O)CNC(=O)C(C)NC(=O)[C@@H](N)Cc1ccc(O)cc1)C(=O)O` (stereo in doubt), 42 nM; to `C[C@@H](NC(=O)[C@@H](N)Cc1ccc(O)cc1)C(=O)NCC(=O)OCc1ccccc1`, 220 nM.
On the same count and under the same terms, for `CC(C)[C@H](NC(=O)[C@](C)(Cc1ccccc1)NC(=O)CNC(=O)[C@@H](C)NC(=O)[C@@H](N)Cc1ccc(O)cc1)C(=O)O` the value was 125 nM.
On the same count and under the same terms, for `CC(NC(=O)[C@@H](N)Cc1ccc(O)cc1)C(=O)NCC(=O)O` (stereo in doubt) the value was 24400 nM; for `CC(C)CC(NC(=O)[C@H](CC1CCCCC1)NC(=O)CNC(=O)C(C)NC(=O)[C@@H](N)Cc1ccc(O)cc1)C(=O)O` (stereo in doubt), 9 nM.

A further experiment is filed under the species Cavia porcellus. The experiment can be described thus: Ability to Inhibit amplitude of the electrically stimulated guinea pig ileum by 50%; Inactive at 3.2E-6 concentration. Format: functional, organism-based.
`CC(C)[C@H](NC(=O)CNC(=O)[C@@H](N)Cc1ccc(O)cc1)C(=O)NC1CCc2ccccc21` (some centres undefined): the IC50 result is listed as “Not Active”.

Test system in a further experiment: not listed separately
The experiment is described as follows: Ratio of IC50 of [D-Ala2, D-Leu5]-enkephalin to that of the compound, in the guinea pig ileum assay. The format is functional.
`C[C@@H](NC(=O)[C@@H](N)Cc1ccc(O)cc1)C(=O)NCC(=O)NC1CCc2ccccc21` (some centres undefined): the Ratio came to 0.47.

Another experiment is filed under the species Cavia porcellus. The experiment is described as follows: Ability to Inhibit amplitude of the electrically stimulated guinea pig ileum by 50%; Inactive at 2.19E-4 concentration. The format is functional, organism-based.
In the case of `NCCc1ccc(O)cc1` [TYRAMINE], the 50% inhibitory concentration (IC50) entry is listed as “Not Active”.

The next experiment is filed under the species Cavia porcellus. The experiment is described as follows: Ability to Inhibit amplitude of the electrically stimulated guinea pig ileum by 50%; Inactive at 1.7E-6 concentration. Format: functional, organism-based.
As to `CC(C)C[C@@H](NC(=O)[C@@H](Cc1ccccc1)NC(=O)CNC(=O)C(C)NC(=O)[C@](C)(N)Cc1ccc(O)cc1)C(=O)O` (stereo in doubt), the IC50 result is on record as “Not Active”.

The species entered for another experiment is Cavia porcellus. The experiment can be described thus: Ability to Inhibit amplitude of the electrically stimulated guinea pig ileum by 50%; Inactive at 2.71E-6. Format: functional, organism-based.
On to `CC(NC(=O)[C@@H](N)Cc1ccc(O)cc1)C(=O)NCC(=O)NC1Cc2ccccc2C1` (stereo in doubt), for which the IC50 entry was “Not Active”.

The species entered for another experiment is Cavia porcellus. The experiment is described as follows: Ability to Inhibit amplitude of the electrically stimulated guinea pig ileum by 50%. Format: functional, organism-based.
For the molecule `N[C@@H](Cc1ccc(O)cc1)C(=O)NCC(=O)NCC(=O)NC1CCc2ccccc21` (some centres undefined), the half-maximal inhibitory concentration (IC50) was found to be 2600 nM. This lies in the single-digit micromolar range.

For the origin of these results see ChEMBL document CHEMBL1121541, “Novel analogues of enkephalin: indentification of functional groups required for biological activity” (J Med Chem, 1980).
